Positions of bridges follow the written chain, without caps; N, C: chain ends. Non-standard residues stand in square brackets, D forms with d. Residues, ends and D or L forms follow the SMILES beside them. Phe(4-guanidino) = N=C(N)Nc1ccc(C[C@H](N)C(=O)O)cc1; Phe(4-CONH2) = NC(=O)c1ccc(C[C@H](N)C(=O)O)cc1; Phe(3,5-F2) = N[C@@H](Cc1cc(F)cc(F)c1)C(=O)O; Phe(4-CH2NH2) = NCc1ccc(C[C@H](N)C(=O)O)cc1; Phe(4-Cl) = N[C@@H](Cc1ccc(Cl)cc1)C(=O)O; Phe(4-F) = N[C@@H](Cc1ccc(F)cc1)C(=O)O; Hyp = O=C(O)[C@@H]1C[C@@H](O)CN1; NMeNle = CCCC[C@H](NC)C(=O)O; NMeA = CN[C@@H](C)C(=O)O; Dap = NC[C@H](N)C(=O)O
Legend:
Human PD-L1/PD-1 = target: T1, Human PD-L1/PD-1 (Homo sapiens, UniProt Q9NZQ7); experiment: HTRF PD-1-Ig/PD-L1-His binding assay (human PD-L1); details: cluster symbol; read-out: HTRF IC50 cluster
T1 construct: made in house; host or cells: HEK293T
T1 sequence (Q9NZQ7 with tags, fused parts or gaps): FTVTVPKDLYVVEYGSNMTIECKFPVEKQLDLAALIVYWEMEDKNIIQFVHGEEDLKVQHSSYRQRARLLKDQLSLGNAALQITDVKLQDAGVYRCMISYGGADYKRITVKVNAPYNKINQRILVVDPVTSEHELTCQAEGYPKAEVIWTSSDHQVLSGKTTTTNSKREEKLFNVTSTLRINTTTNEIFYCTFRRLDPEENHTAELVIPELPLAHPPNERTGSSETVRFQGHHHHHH
Summary of the method: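 HTRF read-out: Eu cryptate anti-Ig mAb 1 nM final, APC anti-His mAb 20 nM final, added over the binding reaction. Proteins were PD-1-Ig and PD-L1-His ectodomain fusions. Buffer was dPBS, 0.1% BSA, 0.05% Tween-20.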

[1] = target: T2, LK35.2-hPD-L1 cells / PE-labeled PD-1-Ig (Homo sapiens, UniProt Q9NZQ7); experiment: LK35.2-hPD-L1 cell binding high-content screening assay; type: cell-based; details: cell binding assay, cell line not given; cluster symbol; read-out: CBA IC50 cluster
T2 construct: expressed in transfected cells; host or cells: LK35.2 mouse B cell line
T2 sequence (Q9NZQ7 19-290): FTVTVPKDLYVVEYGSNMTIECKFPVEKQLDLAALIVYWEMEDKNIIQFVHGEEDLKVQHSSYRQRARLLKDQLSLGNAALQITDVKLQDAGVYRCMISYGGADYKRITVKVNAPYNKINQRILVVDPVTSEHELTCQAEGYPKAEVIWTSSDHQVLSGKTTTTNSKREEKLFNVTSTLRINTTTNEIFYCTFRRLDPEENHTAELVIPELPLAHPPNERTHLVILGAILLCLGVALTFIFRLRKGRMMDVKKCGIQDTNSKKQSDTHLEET
Summary of the method: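 Mouse LK35.2 B cells stably over-expressing human PD-L1, cultured overnight, treated with compound plus PE-labeled human PD-1-Ig (1 nM final) in RPMI/10% FCS for 1 h at 37 °C. After washing, bound fluorescence quantified by high-content imaging.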

Row | Compound | IC50 (Human PD-L1/PD-1) [nM] | IC50 [1] [nM]
1 | CCCC[C@H]1C(=O)N(C)[C@@H](CCCC)C(=O)N[C@@H](CCCNC(=N)N)C(=O)N[C@H](C(=O)NCC(N)=O)CSCC(=O)N[C@@H](Cc2ccc(F)cc2)C(=O)N(C)[C@@H](C)C(=O)N[C@@H](CC(N)=O)C(=O)N2CCC[C@H]2C(=O)N[C@@H](CN)C(=O)N[C@@H](CC(C)C)C(=O)N2C[C@H](O)C[C@H]2C(=O)N[C@@H](Cc2c[nH]c3ccccc23)C(=O)N[C@@H](CO)C(=O)N[C@@H](Cc2c[nH]c3ccccc23)C(=O)N1C [Example 7048] ({CH2CO}-[Phe(4-F)][NMeA]NP[Dap]L[Hyp]WSW[NMeNle][NMeNle]RCG-NH2; thioether N-14) | 0.385 to 6.74 | > 74.3
2 | CCCC[C@H]1C(=O)N(C)[C@@H](CCCC)C(=O)N[C@@H](CCCNC(=N)N)C(=O)N[C@H](C(=O)NCC(N)=O)CSCC(=O)N[C@@H](Cc2ccc(N=C(N)N)cc2)C(=O)N(C)[C@@H](C)C(=O)N[C@@H](CC(N)=O)C(=O)N2CCC[C@H]2C(=O)N[C@@H](Cc2cnc[nH]2)C(=O)N[C@@H](CC(C)C)C(=O)N2C[C@H](O)C[C@H]2C(=O)N[C@@H](Cc2c[nH]c3ccccc23)C(=O)N[C@@H](CO)C(=O)N[C@@H](Cc2c[nH]c3ccccc23)C(=O)N1C [Example 7049] ({CH2CO}-[Phe(4-guanidino)][NMeA]NPHL[Hyp]WSW[NMeNle][NMeNle]RCG-NH2; thioether N-14) | > 30.5 | > 74.3
3 | CCCC[C@H]1C(=O)N(C)[C@@H](CCCC)C(=O)N[C@@H](CCCNC(=N)N)C(=O)N[C@H](C(=O)NCC(N)=O)CSCC(=O)N[C@@H](Cc2ccc(C(N)=O)cc2)C(=O)N(C)[C@@H](C)C(=O)N[C@@H](CC(N)=O)C(=O)N2CCC[C@H]2C(=O)N[C@@H](Cc2cnc[nH]2)C(=O)N[C@@H](CC(C)C)C(=O)N2C[C@H](O)C[C@H]2C(=O)N[C@@H](Cc2c[nH]c3ccccc23)C(=O)N[C@@H](CO)C(=O)N[C@@H](Cc2c[nH]c3ccccc23)C(=O)N1C [Example 7050] ({CH2CO}-[Phe(4-CONH2)][NMeA]NPHL[Hyp]WSW[NMeNle][NMeNle]RCG-NH2; thioether N-14) | 0.385 to 6.74 | 4.78 to 72.9
4 | CCCC[C@H]1C(=O)N(C)[C@@H](CCCC)C(=O)N[C@@H](CCCNC(=N)N)C(=O)N[C@H](C(=O)NCC(N)=O)CSCC(=O)N[C@@H](Cc2cc(F)cc(F)c2)C(=O)N(C)[C@@H](C)C(=O)N[C@@H](CC(N)=O)C(=O)N2CCC[C@H]2C(=O)N[C@@H](Cc2cnc[nH]2)C(=O)N[C@@H](CC(C)C)C(=O)N2C[C@H](O)C[C@H]2C(=O)N[C@@H](Cc2c[nH]c3ccccc23)C(=O)N[C@@H](CO)C(=O)N[C@@H](Cc2c[nH]c3ccccc23)C(=O)N1C [Example 7051] ({CH2CO}-[Phe(3,5-F2)][NMeA]NPHL[Hyp]WSW[NMeNle][NMeNle]RCG-NH2; thioether N-14) | 6.76 to 30.3 | 4.78 to 72.9
5 | CCCC[C@H]1C(=O)N(C)[C@@H](CCCC)C(=O)N[C@@H](CCCNC(=N)N)C(=O)N[C@H](C(=O)NCC(N)=O)CSCC(=O)N[C@@H](Cc2ccc(CN)cc2)C(=O)N(C)[C@@H](C)C(=O)N[C@@H](CC(N)=O)C(=O)N2CCC[C@H]2C(=O)N[C@@H](Cc2cnc[nH]2)C(=O)N[C@@H](CC(C)C)C(=O)N2C[C@H](O)C[C@H]2C(=O)N[C@@H](Cc2c[nH]c3ccccc23)C(=O)N[C@@H](CO)C(=O)N[C@@H](Cc2c[nH]c3ccccc23)C(=O)N1C [Example 7053] ({CH2CO}-[Phe(4-CH2NH2)][NMeA]NPHL[Hyp]WSW[NMeNle][NMeNle]RCG-NH2; thioether N-14) | 6.76 to 30.3 | 4.78 to 72.9
6 | CCCC[C@H]1C(=O)N(C)[C@@H](CCCC)C(=O)N[C@@H](CCCNC(=N)N)C(=O)N[C@H](C(=O)NCC(N)=O)CSCC(=O)N[C@@H](Cc2ccc(Cl)cc2)C(=O)N(C)[C@@H](C)C(=O)N[C@@H](CC(N)=O)C(=O)N2CCC[C@H]2C(=O)N[C@@H](Cc2cnc[nH]2)C(=O)N[C@@H](CC(C)C)C(=O)N2C[C@H](O)C[C@H]2C(=O)N[C@@H](Cc2c[nH]c3ccccc23)C(=O)N[C@@H](CO)C(=O)N[C@@H](Cc2c[nH]c3ccccc23)C(=O)N1C [Example 7054] ({CH2CO}-[Phe(4-Cl)][NMeA]NPHL[Hyp]WSW[NMeNle][NMeNle]RCG-NH2; thioether N-14) | 0.385 to 6.74 | 0.158 to 4.71

Source: patent US9850283B2, “Macrocyclic inhibitors of the PD-1/PD-L1 and CD80(B7-1)/PD-L1 protein/protein interactions” (BRISTOL-MYERS SQUIBB COMPANY, priority 2013, dated 2017)
